From patent US10323063B2, “Advanced macromolecule transduction domain (aMTD) sequences for improvement of cell-permeability, polynucleotides encoding the same, method to identify the unique features of aMTDs comprising the same, method to develop the aMTD sequences comprising the same” (CELLIVERY THERAPEUTICS, INC., priority 2014, dated 2019) come the findings set out here.

For the experiment, the system named is RAW 264.7 cells. Briefly: Quantitative cell-permeability of FITC-labeled aMTD- or rPeptide-fused CRA recombinant proteins by flow cytometry. It counts as cell-based. To be noted: for Relative Ratio to aMTD AVE: cell-permeability of rPeptide relative to the average of 240 aMTDs. The source says: The aMTDs and rPeptides were fluorescently labeled and compared based on the critical factors for cell-permeability by using flow cytometry and confocal laser scanning microscopy (FIG. 5 to 8). The cellular uptake of the peptide-fused non-functional cargo recombinant proteins could quantitatively be evaluated in flow cytometry, while confocal laser scanning microscopy allows intracellular uptake to be assessed visually. The analysis included recombinant proteins fused to a negative control [rP38] that has opposite characteristics (hydrophilic and aromatic sequence: YYNQSTCGGQCY) to the aMTDs (hydrophobic and aliphatic sequences). Relative cell-permeability (relative fold) of aMTDs to the negative control was also analyzed (TABLE 39 and FIG. 9).
Geometric means of negative control (histidine-tagged rP38-fused CRA recombinant protein) subtracted by that of naked protein (histidine-tagged CRA protein) lacking any peptide (rP38 or aMTD) was standardized as relative fold of 1.
For quantitative cell-permeability, the aMTD- or rPeptide-fused recombinant proteins were conjugated to fluorescein isothiocyanate (FITC) according to the manufacturer's instructions (Sigma-Aldrich, St. Louis, Mo.). RAW 264.7 cells were treated with 10 μM FITC-labeled recombinant proteins for 1 hour at 37° C., washed three times with cold PBS, treated with 0.25% tripsin/EDTA (Sigma-Aldrich, St. Louis, Mo.) for 20 minutes at 37° C. to remove cell-surface bound proteins. Cell-permeability of these recombinant proteins were analyzed by flow cytometry (Guava, Millipore, Darmstadt, Germany) using the FlowJo cytometric analysis software (FIG. 5 to 6). The relative cell-permeability of aMTDs were measured and compared with the negative control (rP38) and reference hydrophobic CPPs (MTM12 and MTD85) (TABLE 47).
Background: A flow cytometer gives signals particle by particle.

Setting [1] is: cell-permeability of aMTD-fused CRA recombinant protein relative to negative control (A: rP38).
[2] abbreviates: cell-permeability of aMTD-fused CRA recombinant protein relative to reference CPP (B: MTM12).
Where [3] appears, read: cell-permeability of aMTD-fused CRA recombinant protein relative to reference CPP (C: MTD85).
Setting [4] is: cell-permeability relative to reference CPP MTM12 (B type).
Where [5] appears, read: cell-permeability of aMTD-fused CRA recombinant protein relative to negative control rP38 (A type).
The mark [6] stands for this setting: cell-permeability relative to reference CPP MTD85 (C type).

“503 (AAIIIVLPAALP; Advanced Macromolecule Transduction Domain (aMTD) Sequences for Improvement of Cell-Permeability) [compound 503]”: the “Relative Ratio (Fold) A” value under setting [1] came to 17.6 Fold. Besides, the “Relative Ratio (Fold) B” value under setting [2] was 11.8 Fold. In addition, under setting [3], the “Relative Ratio (Fold) C” value stood at 5.9 Fold. Take “543 (LLAALIAPAALP; Advanced Macromolecule Transduction Domain (aMTD) Sequences for Improvement of Cell-Permeability) [compound 543]”: the “Relative Ratio (Fold) B” value under setting [4] worked out at 7.8 Fold. “563 (ALAVIVVPALAP; Advanced Macromolecule Transduction Domain (aMTD) Sequences for Improvement of Cell-Permeability) [compound 563]”: under setting [1], the “Relative Ratio (Fold) A” value came out at 47.1 Fold. The “Relative Ratio (Fold) B” value under setting [2] amounted to 31.4 Fold. Also, under setting [3], the “Relative Ratio (Fold) C” value worked out at 15.9 Fold.

In the case of 606 (AAAIAAIPIIIP) [compound 606], the “Relative Ratio to aMTD AVE” value amounted to 0.20.

Regarding “625 (ILAAAAAPLIVP; Advanced Macromolecule Transduction Domain (aMTD) Sequences for Improvement of Cell-Permeability) [compound 625]”, the “Relative Ratio (Fold) A” value under setting [1] stood at 20.9 Fold.

As to “705 (IVAVALLPALAP; Advanced Macromolecule Transduction Domain (aMTD) Sequences for Improvement of Cell-Permeability) [compound 705]”, the “Relative Ratio (Fold) A” value under setting [1] came out at 28.6 Fold. Turning to “747 (VALLAIAPALAP; Advanced Macromolecule Transduction Domain (aMTD) Sequences for Improvement of Cell-Permeability) [compound 747]”, the “Relative Ratio (Fold) A” value under setting [1] was 22.0 Fold. The “Relative Ratio (Fold) B” value under setting [2] came to 14.8 Fold. The “Relative Ratio (Fold) C” value under setting [3] stood at 7.5 Fold. Regarding 772 (LPVAPVIPIIVP) [compound 772], the “Relative Ratio to aMTD AVE” value came to 0.16. As to “787 (AVALVPVIVAAP; Advanced Macromolecule Transduction Domain (aMTD) Sequences for Improvement of Cell-Permeability) [compound 787]”, under setting [1], the “Relative Ratio (Fold) A” value turned out to be 29.3 Fold. Under setting [2], the “Relative Ratio (Fold) B” value worked out at 19.6 Fold. The “Relative Ratio (Fold) C” value under setting [3] worked out at 9.9 Fold. Regarding “808 (LVVLAAAPLAVP; Advanced Macromolecule Transduction Domain (aMTD) Sequences for Improvement of Cell-Permeability) [compound 808]”, the “Relative Ratio (Fold) A” value under setting [5] is listed as 11.5 Fold. For the same substance, under setting [6], the “Relative Ratio (Fold) C” value was 3.9 Fold. In addition, the “Relative Ratio (Fold) B” value under setting [4] was 7.6 Fold. For the substance “825 (IVAVIVAPAVAP; Advanced Macromolecule Transduction Domain (aMTD) Sequences for Improvement of Cell-Permeability) [compound 825]”, the “Relative Ratio (Fold) C” value under setting [3] was 23.6 Fold. Consider “826 (LVALAAPIIAVP; Advanced Macromolecule Transduction Domain (aMTD) Sequences for Improvement of Cell-Permeability) [compound 826]”, for which the “Relative Ratio (Fold) C” value under setting [3] was 16.6 Fold. For the substance “849 (AVILLAPLIAAP; Advanced Macromolecule Transduction Domain (aMTD) Sequences for Improvement of Cell-Permeability) [compound 849]”, the “Relative Ratio (Fold) C” value under setting [6] came out at 2.8 Fold. In the case of “877 (VAIIAVPAVVAP; Advanced Macromolecule Transduction Domain (aMTD) Sequences for Improvement of Cell-Permeability) [compound 877]”, the “Relative Ratio (Fold) A” value under setting [1] came out at 14.0 Fold. Moreover, the “Relative Ratio (Fold) B” value under setting [2] is on record as 9.4 Fold. Besides, the “Relative Ratio (Fold) C” value under setting [3] was 4.7 Fold. With “879 (AAIVLLPAVVVP; Advanced Macromolecule Transduction Domain (aMTD) Sequences for Improvement of Cell-Permeability) [compound 879]”, under setting [5], the “Relative Ratio (Fold) A” value is on record as 7.2 Fold. Moreover, under setting [6], the “Relative Ratio (Fold) C” value is listed as 2.4 Fold. Moreover, the “Relative Ratio (Fold) B” value under setting [4] worked out at 4.8 Fold.

In the case of “908 (VALALAPVVVAP; Advanced Macromolecule Transduction Domain (aMTD) Sequences for Improvement of Cell-Permeability) [compound 908]”, under setting [1], the “Relative Ratio (Fold) A” value was 150.6 Fold. Moreover, under setting [2], the “Relative Ratio (Fold) B” value was determined as 100.8 Fold. Moreover, the “Relative Ratio (Fold) C” value under setting [3] is 50.9 Fold. “910 (VAALLPAVVVAP; Advanced Macromolecule Transduction Domain (aMTD) Sequences for Improvement of Cell-Permeability) [compound 910]”: under setting [1], the “Relative Ratio (Fold) A” value came to 148.5 Fold.
